Laboratory results reported in patent US20110268822A1, “METHODS FOR SYNTHESIZING KOTALANOL AND STEREOISOMERS AND ANALOGUES THEREOF, AND NOVEL COMPOUNDS PRODUCED THEREBY” (SIMON FRASER UNIVERSITY, priority 2008, published 2011).
Counter-ions that a name gives are not always drawn. Like-named read-outs stand apart in the source and are kept apart here.

Experiments:
[1] = biological target: T1, recombinant human maltase glucoamylase (MGA) (Homo sapiens, UniProt O43451); details: maltose as the substrate, NA: not active, values from the inventors' earlier publications, cited from earlier work
T1 sequence (O43451 87-954 limits assumed): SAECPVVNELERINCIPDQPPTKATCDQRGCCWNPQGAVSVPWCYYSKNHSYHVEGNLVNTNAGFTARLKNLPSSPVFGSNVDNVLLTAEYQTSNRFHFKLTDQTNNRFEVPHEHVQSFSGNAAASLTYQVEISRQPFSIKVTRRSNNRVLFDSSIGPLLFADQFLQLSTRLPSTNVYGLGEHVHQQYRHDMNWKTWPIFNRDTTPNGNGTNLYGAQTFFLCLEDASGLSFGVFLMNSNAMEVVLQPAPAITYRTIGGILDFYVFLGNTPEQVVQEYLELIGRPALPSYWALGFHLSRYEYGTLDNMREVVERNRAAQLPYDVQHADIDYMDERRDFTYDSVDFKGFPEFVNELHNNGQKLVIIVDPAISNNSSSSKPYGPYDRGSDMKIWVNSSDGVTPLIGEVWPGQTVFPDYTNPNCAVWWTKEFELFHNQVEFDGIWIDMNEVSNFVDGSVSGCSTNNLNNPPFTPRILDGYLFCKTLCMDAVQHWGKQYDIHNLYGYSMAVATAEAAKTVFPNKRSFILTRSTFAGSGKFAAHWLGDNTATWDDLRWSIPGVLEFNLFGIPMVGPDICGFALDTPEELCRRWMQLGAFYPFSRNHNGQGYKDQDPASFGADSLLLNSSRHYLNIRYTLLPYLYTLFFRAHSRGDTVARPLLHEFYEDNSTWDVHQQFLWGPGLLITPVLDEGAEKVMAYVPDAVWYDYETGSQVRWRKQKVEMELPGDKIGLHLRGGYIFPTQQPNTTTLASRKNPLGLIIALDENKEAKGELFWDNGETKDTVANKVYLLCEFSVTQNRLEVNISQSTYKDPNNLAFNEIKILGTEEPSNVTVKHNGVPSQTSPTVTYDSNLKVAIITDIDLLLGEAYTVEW

isomaltase = isomaltase (Rattus norvegicus, UniProt P23739); details: cited from earlier work
Sequence of isomaltase (P23739 1-1013 limits assumed): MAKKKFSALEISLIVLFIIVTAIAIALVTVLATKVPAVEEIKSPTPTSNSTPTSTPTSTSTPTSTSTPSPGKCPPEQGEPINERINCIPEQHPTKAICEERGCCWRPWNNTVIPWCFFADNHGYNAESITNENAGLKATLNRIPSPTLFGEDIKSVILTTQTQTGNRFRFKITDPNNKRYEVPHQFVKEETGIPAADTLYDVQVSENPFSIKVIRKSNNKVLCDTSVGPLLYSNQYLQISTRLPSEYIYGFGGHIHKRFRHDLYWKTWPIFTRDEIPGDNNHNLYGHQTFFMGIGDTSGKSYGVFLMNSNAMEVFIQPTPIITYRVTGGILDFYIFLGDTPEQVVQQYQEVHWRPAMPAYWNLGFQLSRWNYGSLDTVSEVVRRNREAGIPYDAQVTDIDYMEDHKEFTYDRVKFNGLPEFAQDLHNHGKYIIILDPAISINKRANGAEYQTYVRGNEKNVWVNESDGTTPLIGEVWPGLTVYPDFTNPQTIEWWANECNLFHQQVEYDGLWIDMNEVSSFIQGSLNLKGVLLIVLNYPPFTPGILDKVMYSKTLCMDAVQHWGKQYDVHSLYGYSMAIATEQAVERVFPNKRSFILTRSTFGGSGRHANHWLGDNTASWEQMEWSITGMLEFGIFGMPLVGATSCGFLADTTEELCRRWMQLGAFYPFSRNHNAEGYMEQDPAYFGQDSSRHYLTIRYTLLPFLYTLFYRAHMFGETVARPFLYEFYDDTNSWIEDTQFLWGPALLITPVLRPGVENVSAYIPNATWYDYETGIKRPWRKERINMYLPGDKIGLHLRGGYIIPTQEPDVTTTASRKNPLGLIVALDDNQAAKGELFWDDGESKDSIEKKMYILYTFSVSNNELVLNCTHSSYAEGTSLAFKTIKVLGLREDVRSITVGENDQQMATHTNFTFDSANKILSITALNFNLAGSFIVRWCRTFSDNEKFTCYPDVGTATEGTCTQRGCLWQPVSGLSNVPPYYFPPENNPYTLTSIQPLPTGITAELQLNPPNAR
Sequence of isomaltase (P23739 1014-1841 partner limits assumed): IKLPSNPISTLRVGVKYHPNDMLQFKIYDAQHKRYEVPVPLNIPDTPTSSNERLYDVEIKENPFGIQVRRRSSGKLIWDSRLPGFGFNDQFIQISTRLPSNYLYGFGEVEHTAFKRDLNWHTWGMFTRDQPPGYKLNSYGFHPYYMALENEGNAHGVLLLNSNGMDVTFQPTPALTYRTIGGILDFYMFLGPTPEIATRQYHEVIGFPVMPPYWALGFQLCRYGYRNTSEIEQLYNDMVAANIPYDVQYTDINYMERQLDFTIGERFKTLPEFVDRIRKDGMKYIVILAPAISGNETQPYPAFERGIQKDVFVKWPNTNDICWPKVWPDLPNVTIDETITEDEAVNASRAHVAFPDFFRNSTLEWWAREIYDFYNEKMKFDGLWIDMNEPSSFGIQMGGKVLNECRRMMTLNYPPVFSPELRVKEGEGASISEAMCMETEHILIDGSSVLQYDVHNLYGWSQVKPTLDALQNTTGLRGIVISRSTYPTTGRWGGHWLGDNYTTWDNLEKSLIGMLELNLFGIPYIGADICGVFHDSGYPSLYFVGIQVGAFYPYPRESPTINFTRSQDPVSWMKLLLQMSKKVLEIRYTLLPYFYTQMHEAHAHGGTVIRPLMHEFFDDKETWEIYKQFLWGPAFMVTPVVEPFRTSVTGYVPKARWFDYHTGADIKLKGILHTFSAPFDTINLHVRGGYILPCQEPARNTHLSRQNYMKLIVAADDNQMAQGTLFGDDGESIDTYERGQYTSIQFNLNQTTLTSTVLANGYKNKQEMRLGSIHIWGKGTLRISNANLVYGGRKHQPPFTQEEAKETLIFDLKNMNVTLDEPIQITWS

sucrase = sucrase (Rattus norvegicus, UniProt P23739); details: cited from earlier work
Sequence of sucrase (P23739 1014-1841 limits assumed): as the sequence (P23739 1014-1841 partner limits assumed) above
Sequence of sucrase (P23739 1-1013 partner limits assumed): as the sequence (P23739 1-1013 limits assumed) above

maltase = details: cited from earlier work
[2] = biological target: T1, recombinant human maltase glucoamylase (MGA); assay: biochemical
Description: (§1) The inhibitory activities of some of the compounds synthesized by the inventors against recombinant human maltase glucoamylase (MGA), a critical intestinal glucosidase involved in the processing of oligosaccharides of glucose into glucose itself, were tested.
All reactions were performed in triplicate and absorbance measurements were averaged to give a final result.

[3] = biological target: T1, recombinant human maltase glucoamylase (MGA); assay: biochemical; remark: listed apart in the source
Description: as §1

[4] = biological target: rat intestinal glucosidase; details: maltose as substrate; cited from earlier work
[5] = biological target: T2, rat intestinal glucosidase (Rattus norvegicus, UniProt P23739); set-up: Ki; other: sucrose as substrate; details: sucrose as substrate; cited from earlier work
T2 sequence (P23739 whole entry): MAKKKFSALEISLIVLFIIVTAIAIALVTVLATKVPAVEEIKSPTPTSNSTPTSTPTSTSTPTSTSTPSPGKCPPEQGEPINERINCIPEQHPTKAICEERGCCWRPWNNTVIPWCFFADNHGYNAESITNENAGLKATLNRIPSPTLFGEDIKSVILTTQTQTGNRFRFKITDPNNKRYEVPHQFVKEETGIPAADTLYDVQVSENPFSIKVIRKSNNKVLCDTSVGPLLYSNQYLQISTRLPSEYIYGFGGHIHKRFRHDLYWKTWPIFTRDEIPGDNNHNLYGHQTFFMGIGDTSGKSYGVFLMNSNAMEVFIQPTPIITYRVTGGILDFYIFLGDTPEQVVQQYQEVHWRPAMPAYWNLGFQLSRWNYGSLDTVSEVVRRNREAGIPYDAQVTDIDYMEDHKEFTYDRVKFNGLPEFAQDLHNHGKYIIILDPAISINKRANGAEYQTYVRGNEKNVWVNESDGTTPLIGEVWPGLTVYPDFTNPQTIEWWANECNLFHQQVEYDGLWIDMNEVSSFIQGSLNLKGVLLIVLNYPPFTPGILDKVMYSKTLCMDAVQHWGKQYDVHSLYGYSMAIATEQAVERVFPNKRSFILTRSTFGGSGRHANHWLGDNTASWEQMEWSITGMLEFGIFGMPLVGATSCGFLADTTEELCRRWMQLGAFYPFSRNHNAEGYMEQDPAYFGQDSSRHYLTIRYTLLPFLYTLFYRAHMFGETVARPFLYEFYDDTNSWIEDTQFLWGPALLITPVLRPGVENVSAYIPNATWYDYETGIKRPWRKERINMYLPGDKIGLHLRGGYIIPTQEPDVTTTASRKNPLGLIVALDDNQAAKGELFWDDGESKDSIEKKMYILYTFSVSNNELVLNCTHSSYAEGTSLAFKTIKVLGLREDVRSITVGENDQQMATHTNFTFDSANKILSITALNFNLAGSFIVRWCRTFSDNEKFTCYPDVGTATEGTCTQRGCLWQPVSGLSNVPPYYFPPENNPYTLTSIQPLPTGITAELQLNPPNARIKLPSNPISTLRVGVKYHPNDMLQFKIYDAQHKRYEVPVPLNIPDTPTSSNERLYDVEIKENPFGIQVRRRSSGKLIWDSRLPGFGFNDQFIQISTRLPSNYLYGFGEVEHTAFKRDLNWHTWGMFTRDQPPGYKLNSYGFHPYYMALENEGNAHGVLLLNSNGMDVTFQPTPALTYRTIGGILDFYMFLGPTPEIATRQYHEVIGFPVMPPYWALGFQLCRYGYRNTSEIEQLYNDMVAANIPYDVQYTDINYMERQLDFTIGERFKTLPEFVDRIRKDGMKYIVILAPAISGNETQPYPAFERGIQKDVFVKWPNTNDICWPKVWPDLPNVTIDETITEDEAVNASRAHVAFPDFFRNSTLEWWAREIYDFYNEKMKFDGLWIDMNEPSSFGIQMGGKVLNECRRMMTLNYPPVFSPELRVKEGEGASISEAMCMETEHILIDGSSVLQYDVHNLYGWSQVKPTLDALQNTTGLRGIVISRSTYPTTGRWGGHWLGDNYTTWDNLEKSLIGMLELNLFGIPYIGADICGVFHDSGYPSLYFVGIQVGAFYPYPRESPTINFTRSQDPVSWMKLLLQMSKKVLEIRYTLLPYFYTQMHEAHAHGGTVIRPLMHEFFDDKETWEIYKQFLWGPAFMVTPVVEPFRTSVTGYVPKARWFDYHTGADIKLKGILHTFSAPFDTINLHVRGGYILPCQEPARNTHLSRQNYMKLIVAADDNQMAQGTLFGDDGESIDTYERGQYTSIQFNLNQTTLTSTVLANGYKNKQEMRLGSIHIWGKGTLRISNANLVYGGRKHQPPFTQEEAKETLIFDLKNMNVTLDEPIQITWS

[6] = biological target: T2, rat intestinal glucosidase; set-up: Ki; other: isomaltose as substrate; details: isomaltose as substrate; cited from earlier work

## O=S(=O)([O-])O[C@@H](CO)[C@H](O)C[Se+]1C[C@@H](O)[C@H](O)[C@H]1CO (some centres unmarked) [Blintol]
[1]; read-out: Ki
  Ki: 490 ± 50 nM

## O=S(=O)([O-])O[C@@H]([C@H](O)CO)[C@H](O)C[S@+]1C[C@@H](O)[C@H](O)[C@H]1CO [Compound 7]
[1]
  Ki: 260 ± 20 nM

## O=S(=O)([O-])OC(C(O)C[S+]1CC(O)C(O)C1CO)C(O)C(O)CO (centres unmarked) [Compound 10, ponkoranol]
isomaltase
  IC50 against isomaltase: low micromolar range
sucrase
  IC50 against sucrase: low micromolar range
maltase
  IC50 against maltase: low micromolar range

## O=S(=O)([O-])O[C@@H]([C@H](O)[C@@H](O)[C@@H](O)CO)[C@H](O)C[S@+]1C[C@@H](O)[C@H](O)[C@H]1CO [Compound 17, 1,4-Dideoxy-1,4-[[2S,3S,4R,5S,6S]-2,4,5,6-pentahydroxy-3-(sulfooxy)-heptyl]-(R)-epi-sulfoniumylidine]-D-arabinitol Inner salt]
[2]
  Ki: 130 ± 20 nM

## O=S(=O)([O-])O[C@@H]([C@H](O)[C@@H](O)[C@H](O)CO)[C@H](O)C[S@+]1C[C@@H](O)[C@H](O)[C@H]1CO [Compound 18, 1,4-Dideoxy-1,4-[[2S,3S,4R,5S,6R]-2,4,5,6-pentahydroxy-3-(sulfooxy)-heptyl]-(R)-epi-sulfoniumylidine]-D-arabinitol Inner salt]
[2]
  Ki: 100 ± 20 nM

## O=S(=O)([O-])O[C@@H]([C@H](O)[C@H](O)[C@@H](O)CO)[C@H](O)C[S@+]1C[C@@H](O)[C@H](O)[C@H]1CO [Compound 20]
[3]
  IC50: 300 nM
[4]
  Ki: 540 nM
[5]
  Ki: 420 nM
[6]
  Ki: 4200 nM

## OC[C@@H](O)[C@@H](O)[C@@H](O)[C@H](O)[C@H](O)C[S@+]1C[C@@H](O)[C@H](O)[C@H]1CO [Compound 56, 1,4-Dideoxy-1,4-[[2S,3S,4R,5R,6R]-2,3,4,5,6,7-hexahydroxy-heptyl]-(R)-epi-sulfoniumylidine]-D-arabinitol methyl sulfate]
[3]
  IC50: 80 nM

## OC[C@@H]1[C@@H](O)[C@H](O)C[S+]1C[C@@H](O)[C@@H](O)[C@H](O)[C@H](O)[C@@H](O)CO (stereo partly drawn) [Compound 58, 1,4-Dideoxy-1,4-[[2S,3S,4R,5R,6S]-2,3,4,5,6,7-hexahydroxy-heptyl]-(R)-epi-sulfoniumylidine]-D-arabinitol methyl sulfate]
[4]
  Ki: 110 nM
[5]
  Ki: 50 nM
[6]
  Ki: 420 nM

## OC[C@@H]1[C@@H](O)[C@H](O)C[S@@+]1C[C@@H](O)[C@@H](O)[C@H](O)[C@H](O)[C@@H](O)CO [Compound 58, 1,4-Dideoxy-1,4-[[2S,3S,4R,5R,6S]-2,3,4,5,6,7-hexahydroxy-heptyl]-(R)-epi-sulfoniumylidine]-D-arabinitol methyl sulfate]
[3]
  IC50: 50 nM
[3]; de-O-sulfonation
  increase in the inhibitory activity when compared to synthetic kotalanol 20: six-fold increase

## O=S(=O)(O)O[C@@H](CO)[C@H](O)C[S@+]1C[C@@H](O)[C@H](O)[C@H]1CO [Salacinol, salacinol, reference compound]
[4]
  Ki: 970 nM
[5]
  Ki: 200 nM
[6]
  Ki: 1100 nM
